Reference: PubChem BioAssay (NCI)
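Test compounds were applied to cells in 96-well plates for 48 hours at 5 doses. Definition used: TGI = concentration required for complete inhibition of growth.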

Key:
Experiment in all cases: inhibition of tumour cell growth, NCI panel, 48 h
UACC-62 melanoma = test system: UACC-62 melanoma
NCI-H226 lung = test system: NCI-H226 lung
SW-620 colon = test system: SW-620 colon
SK-MEL-28 melanoma = test system: SK-MEL-28 melanoma
ACHN renal = test system: ACHN renal
OVCAR-3 ovarian = test system: OVCAR-3 ovarian
DLD-1 colon = test system: DLD-1 colon
A549 NSCLC = test system: A549 NSCLC
SK-MEL-5 melanoma = test system: SK-MEL-5 melanoma
DMS 273 small cell lung = test system: DMS 273 small cell lung
TK-10 renal = test system: TK-10 renal
MOLT-4 leukemia = test system: MOLT-4 leukemia
SK-OV-3 ovarian = test system: SK-OV-3 ovarian
DMS 114 small cell lung = test system: DMS 114 small cell lung
HCT-116 colon = test system: HCT-116 colon
NCI-H23 lung = test system: NCI-H23 lung
UO-31 renal = test system: UO-31 renal
HT29 colon = test system: HT29 colon
M19-MEL melanoma = test system: M19-MEL melanoma
HOP-62 NSCLC = test system: HOP-62 NSCLC
SNB-19 CNS = test system: SNB-19 CNS
HL-60(TB) leukemia = test system: HL-60(TB) leukemia
SF-295 CNS = test system: SF-295 CNS
NCI-H460 lung = test system: NCI-H460 lung
K-562 leukemia = test system: K-562 leukemia
U251 CNS = test system: U251 CNS
RXF 393 renal = test system: RXF 393 renal
SF-539 CNS = test system: SF-539 CNS
OVCAR-4 ovarian = test system: OVCAR-4 ovarian
RPMI-8226 leukemia = test system: RPMI-8226 leukemia
MALME-3M melanoma = test system: MALME-3M melanoma
KM20L2 colon = test system: KM20L2 colon
HCT-15 colon = test system: HCT-15 colon
CAKI-1 renal = test system: CAKI-1 renal
COLO 205 colon = test system: COLO 205 colon
M14 melanoma = test system: M14 melanoma
OVCAR-8 ovarian = test system: OVCAR-8 ovarian
NCI-H522 lung = test system: NCI-H522 lung
LOX IMVI melanoma = test system: LOX IMVI melanoma
CCRF-CEM leukemia = test system: CCRF-CEM leukemia
SN12C renal = test system: SN12C renal
SF-268 CNS = test system: SF-268 CNS
HCC-2998 colon = test system: HCC-2998 colon
LXFL 529 NSCLC = test system: LXFL 529 NSCLC
EKVX NSCLC = test system: EKVX NSCLC
IGROV1 ovarian = test system: IGROV1 ovarian
SK-MEL-2 melanoma = test system: SK-MEL-2 melanoma
KM12 colon = test system: KM12 colon
HOP-18 NSCLC = test system: HOP-18 NSCLC
HOP-92 NSCLC = test system: HOP-92 NSCLC
SNB-78 CNS = test system: SNB-78 CNS
XF 498 CNS = test system: XF 498 CNS
786-0 renal = test system: 786-0 renal
SNB-75 CNS = test system: SNB-75 CNS
UACC-257 melanoma = test system: UACC-257 melanoma
OVCAR-5 ovarian = test system: OVCAR-5 ovarian
SR leukemia = test system: SR leukemia

COc1ccc2c(c1)Cc1c-2[nH]c2cc3c(cc2c1=O)OCO3
TGI (UACC-62 melanoma): 22.8 µM
TGI (NCI-H226 lung): 94.3 µM
TGI (SW-620 colon): > 100 µM
TGI (SK-MEL-28 melanoma): 53.8 µM
TGI (ACHN renal): 30.5 µM
TGI (OVCAR-3 ovarian): 45.9 µM
TGI (DLD-1 colon): 41.7 µM
TGI (A549 NSCLC): > 100 µM
TGI (SK-MEL-5 melanoma): 19.4 µM
TGI (DMS 273 small cell lung): 24.7 µM
TGI (TK-10 renal): 83.3 µM
TGI (MOLT-4 leukemia): 41.9 µM
TGI (SK-OV-3 ovarian): 95.8 µM
TGI (DMS 114 small cell lung): 17.9 µM
TGI (HCT-116 colon): 23.2 µM
TGI (NCI-H23 lung): 48.2 µM
TGI (UO-31 renal): 89 µM
TGI (HT29 colon): 19.9 µM
TGI (M19-MEL melanoma): 34.3 µM
TGI (HOP-62 NSCLC): 45.1 µM
TGI (SNB-19 CNS): > 100 µM
TGI (HL-60(TB) leukemia): 29.2 µM
TGI (SF-295 CNS): 51.7 µM
TGI (NCI-H460 lung): 35 µM
TGI (K-562 leukemia): > 100 µM
TGI (U251 CNS): 23.5 µM
TGI (RXF 393 renal): 19.5 µM
TGI (SF-539 CNS): 30.6 µM
TGI (OVCAR-4 ovarian): > 100 µM
TGI (RPMI-8226 leukemia): 35.8 µM
TGI (MALME-3M melanoma): 42.8 µM
TGI (KM20L2 colon): 35 µM
TGI (HCT-15 colon): > 100 µM
TGI (CAKI-1 renal): > 100 µM
TGI (COLO 205 colon): 25.5 µM
TGI (M14 melanoma): 51.2 µM
TGI (OVCAR-8 ovarian): > 100 µM
TGI (NCI-H522 lung): 35.1 µM
TGI (LOX IMVI melanoma): 34.2 µM
TGI (CCRF-CEM leukemia): 39.1 µM
TGI (SN12C renal): > 100 µM
TGI (SF-268 CNS): > 100 µM
TGI (HCC-2998 colon): 51 µM
TGI (LXFL 529 NSCLC): > 100 µM
TGI (EKVX NSCLC): > 100 µM
TGI (IGROV1 ovarian): 59.5 µM
TGI (SK-MEL-2 melanoma): 21.8 µM
TGI (KM12 colon): 38.3 µM
TGI (HOP-18 NSCLC): 58.2 µM
TGI (HOP-92 NSCLC): 48.5 µM
TGI (SNB-78 CNS): > 100 µM
TGI (XF 498 CNS): 38.3 µM
TGI (786-0 renal): > 100 µM

O=C(NN1C(=O)C(Cl)C1c1ccc([N+](=O)[O-])cc1)c1ccccc1O (centres undefined)
TGI (SNB-75 CNS): > 100 µM
TGI (UACC-62 melanoma): > 100 µM
TGI (SW-620 colon): > 100 µM
TGI (SK-MEL-28 melanoma): > 100 µM
TGI (OVCAR-3 ovarian): > 100 µM
TGI (A549 NSCLC): > 100 µM
TGI (SK-MEL-5 melanoma): > 100 µM
TGI (TK-10 renal): > 100 µM
TGI (MOLT-4 leukemia): > 100 µM
TGI (SK-OV-3 ovarian): > 100 µM
TGI (DMS 114 small cell lung): > 100 µM
TGI (HCT-116 colon): > 100 µM
TGI (NCI-H23 lung): > 100 µM
TGI (UO-31 renal): > 100 µM
TGI (HT29 colon): > 100 µM
TGI (M19-MEL melanoma): > 100 µM
TGI (HOP-62 NSCLC): > 100 µM
TGI (SNB-19 CNS): > 100 µM
TGI (HL-60(TB) leukemia): > 100 µM
TGI (SF-295 CNS): > 100 µM
TGI (NCI-H460 lung): > 100 µM
TGI (K-562 leukemia): > 100 µM
TGI (U251 CNS): > 100 µM
TGI (RXF 393 renal): > 100 µM
TGI (SF-539 CNS): > 100 µM
TGI (UACC-257 melanoma): > 100 µM
TGI (OVCAR-4 ovarian): > 100 µM
TGI (RPMI-8226 leukemia): > 100 µM
TGI (MALME-3M melanoma): > 100 µM
TGI (KM20L2 colon): > 100 µM
TGI (COLO 205 colon): > 100 µM
TGI (M14 melanoma): > 100 µM
TGI (OVCAR-8 ovarian): > 100 µM
TGI (OVCAR-5 ovarian): > 100 µM
TGI (NCI-H522 lung): > 100 µM
TGI (CCRF-CEM leukemia): > 100 µM
TGI (SN12C renal): > 100 µM
TGI (SF-268 CNS): > 100 µM
TGI (LXFL 529 NSCLC): > 100 µM
TGI (EKVX NSCLC): > 100 µM
TGI (IGROV1 ovarian): > 100 µM
TGI (SK-MEL-2 melanoma): > 100 µM
TGI (KM12 colon): > 100 µM
TGI (HOP-92 NSCLC): > 100 µM
TGI (SR leukemia): > 100 µM
TGI (XF 498 CNS): > 100 µM
